This test deals with C57BL/6J mice. In words: Glucokinase activator in vivo screen protocol (blood glucose after oral dosing). The settings on record: administered orally, 50 mg/kg, C57BL/6J mice fasted two hours, blood glucose vs vehicle over six hours post dose. As to the method:
(Glucokinase Activator in Vivo Screen Protocol
C57BL/6J mice are orally dosed via gavage with Glucokinase (GK) activator at 50 mg/kg body weight following a two hour fasting period. Blood glucose determinations are made five times during the six hour post-dose study period.
Mice (n=6) are weighed and fasted for a two hour period prior to oral treatment. GK activators are formulated at 6.76 mg/ml in Gelucire vehicle (Ethanol:Gelucire44/14:PEG400q.s. 4:66:30 v/w/v. Mice are dosed orally with 7.5 μL formulation per gram of body weight to equal a 50 mg/kg dose. Immediately prior to dosing, a pre dose (time zero) blood glucose reading is acquired by snipping off a small portion of the animals tail (˜1 mm) and collecting 15 μL blood into a heparinized capillary tube for analysis. Following GK activator administration, additional blood glucose readings are taken at 1, 2, 4, and 6 hours post dose from the same tail wound. Results are interpreted by comparing the mean blood glucose values of six vehicle treated mice with six GK activator treated mice over the six hour study duration.

As for `CS(=O)(=O)c1ccc([C@@H](CC2CCCC2)C(=O)Nc2nc3ccccc3s2)cc1Cl` [Example 19, N-Benzothiazol-2-yl-2(R)-(3-chloro-4-methanesulfonyl-phenyl)-3-cyclopentyl-propionamide], the “glucokinase activator in vivo activity” value is reported as “excellent glucokinase activator in vivo activity”.
For `CS(=O)(=O)c1ccc(C(CC2CCCC2)C(=O)Nc2nc3ccccc3[nH]2)cc1Cl` (stereo not drawn) [Example 20, N-(1H-Benzoimidazol-2-yl)-2-(3-chloro-4-methanesulfonyl-phenyl)-3-cyclopentyl-propionamide] the value was “excellent glucokinase activator in vivo activity”.
On to `CS(=O)(=O)c1ccc(C(CC2CCCC2)C(=O)Nc2ccc3ccccc3n2)cc1Cl` (stereo not drawn) [Example 22, 2-(3-Chloro-4-methanesulfonyl-phenyl)-3-cyclopentyl-N-quinolin-2-yl-propionamide], for which the “glucokinase activator in vivo activity” value is given as “excellent glucokinase activator in vivo activity”.

The values above are taken from patent publication US6545155B2, “Fused heteroaromatic glucokinase activators” (Hoffmann-La Roche Inc., priority 2000, dated 2003).
